Data: ChEMBL document CHEMBL4507291 (2021)

How the values were obtained:
Rattus norvegicus = species on record: Rattus norvegicus; experiment: Testosterone Eurofins-Panlabs radioligand binding assay; parameters: ligand concentration 1.5 nM; conditions: Compound concentration 10.0 uM
[1] = target: B1 bradykinin receptor (Homo sapiens) (UniProt P46663); experiment: Inhibition of Bradykinin B1 at 10 µM in the Eurofins-Panlabs radioligand binding assay (Eurofins_assay_212510); conditions: Compound concentration 10.0 uM
[2] = target: AMPK alpha2/beta1/gamma1 (Homo sapiens) (UniProt P54646+P54619+Q9Y478); experiment: AMPK A2/B1/G1 Kinase screen; assay type: protein-complex assay; conditions: Compound concentration 1.0 uM
Chain of AMPK alpha2/beta1/gamma1 (Homo sapiens) (P54619 whole entry partner): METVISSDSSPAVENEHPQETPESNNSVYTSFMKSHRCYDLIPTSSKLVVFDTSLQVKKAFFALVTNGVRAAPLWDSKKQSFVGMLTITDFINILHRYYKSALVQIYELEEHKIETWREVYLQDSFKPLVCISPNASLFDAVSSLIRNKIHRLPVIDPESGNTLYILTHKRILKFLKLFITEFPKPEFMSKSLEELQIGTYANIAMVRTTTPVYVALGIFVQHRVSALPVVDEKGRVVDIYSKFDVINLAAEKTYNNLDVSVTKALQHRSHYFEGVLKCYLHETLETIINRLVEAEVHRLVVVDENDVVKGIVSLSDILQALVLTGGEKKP
Chain of AMPK alpha2/beta1/gamma1 (Homo sapiens) (P54646 whole entry): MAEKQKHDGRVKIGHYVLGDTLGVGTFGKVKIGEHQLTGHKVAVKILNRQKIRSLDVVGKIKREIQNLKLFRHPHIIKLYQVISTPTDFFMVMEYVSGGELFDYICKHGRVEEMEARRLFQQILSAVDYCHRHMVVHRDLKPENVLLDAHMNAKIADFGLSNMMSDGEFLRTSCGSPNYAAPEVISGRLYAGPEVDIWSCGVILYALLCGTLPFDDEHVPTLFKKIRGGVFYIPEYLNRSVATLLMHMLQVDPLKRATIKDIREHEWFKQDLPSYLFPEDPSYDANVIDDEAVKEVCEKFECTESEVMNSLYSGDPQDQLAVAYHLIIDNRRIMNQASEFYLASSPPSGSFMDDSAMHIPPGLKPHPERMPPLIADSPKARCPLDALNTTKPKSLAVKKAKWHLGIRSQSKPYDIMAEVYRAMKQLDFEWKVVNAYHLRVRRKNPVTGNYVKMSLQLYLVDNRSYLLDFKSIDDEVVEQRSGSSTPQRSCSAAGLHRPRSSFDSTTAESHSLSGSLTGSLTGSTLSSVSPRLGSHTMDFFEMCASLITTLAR
Chain of AMPK alpha2/beta1/gamma1 (Homo sapiens) (Q9Y478 2-270 partner limits assumed): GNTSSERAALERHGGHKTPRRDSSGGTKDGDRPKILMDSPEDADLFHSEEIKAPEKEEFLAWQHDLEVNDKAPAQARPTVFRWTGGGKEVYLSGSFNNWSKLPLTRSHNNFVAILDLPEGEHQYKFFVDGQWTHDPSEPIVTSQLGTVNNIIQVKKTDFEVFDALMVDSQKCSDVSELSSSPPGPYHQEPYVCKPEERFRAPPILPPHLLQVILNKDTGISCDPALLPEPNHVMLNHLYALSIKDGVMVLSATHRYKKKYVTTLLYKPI

[3] = target: Cyclin-dependent kinase 5/CDK5 activator 1 (Homo sapiens) (UniProt Q00535+Q15078); experiment: CDK5/p35 Kinase screen; assay type: protein-complex assay; conditions: Compound concentration 1.0 uM
[4] = target: T1, Serine/threonine-protein kinase Chk1 (Homo sapiens) (UniProt O14757); experiment: CHEK1 (CHK1) Kinase screen; conditions: Compound concentration 1.0 uM
T1 sequence (whole entry): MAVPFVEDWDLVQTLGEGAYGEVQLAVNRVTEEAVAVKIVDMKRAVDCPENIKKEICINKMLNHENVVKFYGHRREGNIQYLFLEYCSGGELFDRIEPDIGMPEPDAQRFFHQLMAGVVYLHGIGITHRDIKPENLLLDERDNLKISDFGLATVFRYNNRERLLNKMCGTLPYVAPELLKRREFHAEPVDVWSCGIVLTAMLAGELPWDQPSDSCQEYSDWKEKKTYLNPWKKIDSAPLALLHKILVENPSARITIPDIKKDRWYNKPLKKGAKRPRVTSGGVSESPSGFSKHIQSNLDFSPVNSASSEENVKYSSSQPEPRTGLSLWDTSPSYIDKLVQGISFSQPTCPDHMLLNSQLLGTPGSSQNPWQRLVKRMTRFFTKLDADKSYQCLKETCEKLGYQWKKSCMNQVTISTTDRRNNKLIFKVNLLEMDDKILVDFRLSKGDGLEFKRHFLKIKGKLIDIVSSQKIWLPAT

[5] = target: Death-associated protein kinase 1 (Homo sapiens) (UniProt P53355); experiment: DAPK1 Kinase screen; conditions: Compound concentration 1.0 uM
Chain of Death-associated protein kinase 1 (Homo sapiens) (P53355 whole entry, looked up): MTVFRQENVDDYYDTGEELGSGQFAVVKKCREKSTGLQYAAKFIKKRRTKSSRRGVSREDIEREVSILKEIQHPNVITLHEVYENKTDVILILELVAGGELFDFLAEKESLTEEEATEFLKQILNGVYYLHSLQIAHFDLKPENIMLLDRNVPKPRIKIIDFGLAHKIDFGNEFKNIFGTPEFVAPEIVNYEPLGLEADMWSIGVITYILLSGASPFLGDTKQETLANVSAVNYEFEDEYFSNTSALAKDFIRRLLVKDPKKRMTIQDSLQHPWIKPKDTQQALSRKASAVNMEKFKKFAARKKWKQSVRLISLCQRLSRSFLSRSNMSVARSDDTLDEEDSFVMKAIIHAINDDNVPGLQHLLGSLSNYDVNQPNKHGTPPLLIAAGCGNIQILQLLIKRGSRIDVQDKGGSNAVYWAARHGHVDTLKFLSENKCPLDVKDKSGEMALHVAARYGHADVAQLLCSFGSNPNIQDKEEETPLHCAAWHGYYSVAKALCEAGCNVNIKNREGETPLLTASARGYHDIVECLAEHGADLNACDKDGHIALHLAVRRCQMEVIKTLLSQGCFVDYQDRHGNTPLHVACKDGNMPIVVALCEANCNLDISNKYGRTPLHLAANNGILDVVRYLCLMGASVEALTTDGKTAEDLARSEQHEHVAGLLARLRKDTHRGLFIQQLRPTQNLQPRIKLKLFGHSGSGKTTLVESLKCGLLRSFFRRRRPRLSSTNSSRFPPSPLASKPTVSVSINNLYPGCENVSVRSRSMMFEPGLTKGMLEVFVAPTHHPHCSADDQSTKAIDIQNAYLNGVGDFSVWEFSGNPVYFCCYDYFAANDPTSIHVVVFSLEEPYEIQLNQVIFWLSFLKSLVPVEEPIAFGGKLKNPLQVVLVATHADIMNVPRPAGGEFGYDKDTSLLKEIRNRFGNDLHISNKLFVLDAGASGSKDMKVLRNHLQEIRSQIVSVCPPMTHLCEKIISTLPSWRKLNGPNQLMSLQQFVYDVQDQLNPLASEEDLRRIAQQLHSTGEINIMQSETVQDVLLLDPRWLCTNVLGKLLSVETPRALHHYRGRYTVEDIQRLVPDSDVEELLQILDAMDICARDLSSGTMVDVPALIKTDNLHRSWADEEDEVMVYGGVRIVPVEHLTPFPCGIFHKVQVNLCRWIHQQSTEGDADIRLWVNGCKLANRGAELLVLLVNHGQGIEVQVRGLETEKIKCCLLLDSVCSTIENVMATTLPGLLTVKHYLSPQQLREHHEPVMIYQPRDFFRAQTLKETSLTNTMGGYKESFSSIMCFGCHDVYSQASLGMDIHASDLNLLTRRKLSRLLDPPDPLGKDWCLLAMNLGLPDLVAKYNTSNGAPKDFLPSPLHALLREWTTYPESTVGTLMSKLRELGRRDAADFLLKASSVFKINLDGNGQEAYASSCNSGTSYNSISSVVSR

[6] = target: Insulin receptor-related protein (Homo sapiens) (UniProt P14616); experiment: INSRR (IRR) Kinase screen; conditions: Compound concentration 1.0 uM
Chain of Insulin receptor-related protein (Homo sapiens) (P14616 27-742 limits assumed): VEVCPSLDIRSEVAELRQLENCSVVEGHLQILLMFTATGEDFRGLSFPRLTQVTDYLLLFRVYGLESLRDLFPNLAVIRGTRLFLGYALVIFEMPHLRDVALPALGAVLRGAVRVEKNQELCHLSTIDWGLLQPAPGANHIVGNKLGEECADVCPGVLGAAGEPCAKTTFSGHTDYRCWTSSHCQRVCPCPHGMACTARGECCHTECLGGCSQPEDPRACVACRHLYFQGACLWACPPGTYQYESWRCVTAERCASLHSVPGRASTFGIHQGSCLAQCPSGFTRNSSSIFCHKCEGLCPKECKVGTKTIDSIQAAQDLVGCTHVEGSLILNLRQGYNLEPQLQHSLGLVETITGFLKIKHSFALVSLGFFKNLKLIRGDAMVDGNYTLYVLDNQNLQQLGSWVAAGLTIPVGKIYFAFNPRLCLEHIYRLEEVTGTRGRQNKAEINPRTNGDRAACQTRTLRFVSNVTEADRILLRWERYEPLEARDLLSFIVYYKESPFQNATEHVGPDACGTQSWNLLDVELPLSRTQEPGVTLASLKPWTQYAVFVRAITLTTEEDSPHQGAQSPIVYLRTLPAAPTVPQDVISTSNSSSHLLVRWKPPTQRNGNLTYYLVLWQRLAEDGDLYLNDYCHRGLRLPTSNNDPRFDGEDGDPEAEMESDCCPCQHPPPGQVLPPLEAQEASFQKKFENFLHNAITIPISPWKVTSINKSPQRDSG
Chain of Insulin receptor-related protein (Homo sapiens) (P14616 747-1297 limits assumed): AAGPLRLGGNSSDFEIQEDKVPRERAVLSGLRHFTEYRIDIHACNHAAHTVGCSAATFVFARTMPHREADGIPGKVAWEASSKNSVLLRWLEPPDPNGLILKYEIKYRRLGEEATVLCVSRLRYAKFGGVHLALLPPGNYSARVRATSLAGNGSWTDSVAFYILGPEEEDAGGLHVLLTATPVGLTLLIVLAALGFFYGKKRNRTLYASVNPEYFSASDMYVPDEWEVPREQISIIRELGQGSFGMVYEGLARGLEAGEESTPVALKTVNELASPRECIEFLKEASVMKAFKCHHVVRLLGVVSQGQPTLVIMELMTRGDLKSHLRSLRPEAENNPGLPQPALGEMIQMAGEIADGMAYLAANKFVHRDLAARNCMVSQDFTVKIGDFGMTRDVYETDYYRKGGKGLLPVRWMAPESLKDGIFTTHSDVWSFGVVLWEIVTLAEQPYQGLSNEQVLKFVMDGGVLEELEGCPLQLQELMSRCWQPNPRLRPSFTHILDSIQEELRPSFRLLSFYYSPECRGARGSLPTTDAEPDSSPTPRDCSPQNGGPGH

[7] = target: Mitogen-activated protein kinase 10 (Homo sapiens) (UniProt P53779); experiment: MAPK10 (JNK3) Kinase screen; conditions: Compound concentration 1.0 uM
[8] = target: Mitogen-activated protein kinase 14 (Homo sapiens) (UniProt Q16539); experiment: MAPK14 (p38 alpha) Kinase screen; conditions: Compound concentration 1.0 uM
[9] = target: Serine/threonine-protein kinase 26 (Homo sapiens) (UniProt Q9P289); experiment: MST4 Kinase screen; conditions: Compound concentration 1.0 uM
Chain of Serine/threonine-protein kinase 26 (Homo sapiens) (Q9P289 2-416 limits assumed): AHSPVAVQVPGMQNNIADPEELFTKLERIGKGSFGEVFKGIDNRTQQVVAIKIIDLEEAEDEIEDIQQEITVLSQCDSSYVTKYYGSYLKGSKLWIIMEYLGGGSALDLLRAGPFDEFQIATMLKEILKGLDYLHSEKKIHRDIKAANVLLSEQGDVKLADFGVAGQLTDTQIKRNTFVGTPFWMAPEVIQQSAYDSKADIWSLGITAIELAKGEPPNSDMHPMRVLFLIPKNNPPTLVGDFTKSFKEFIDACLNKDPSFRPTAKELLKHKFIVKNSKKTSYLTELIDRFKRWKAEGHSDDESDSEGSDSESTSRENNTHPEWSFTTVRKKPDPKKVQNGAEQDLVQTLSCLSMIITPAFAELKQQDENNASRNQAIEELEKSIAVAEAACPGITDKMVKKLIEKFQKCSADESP

[10] = target: T2, Serine/threonine-protein kinase NLK (Homo sapiens) (UniProt Q9UBE8); experiment: NLK Kinase screen; conditions: Compound concentration 1.0 uM
T2 sequence (whole entry): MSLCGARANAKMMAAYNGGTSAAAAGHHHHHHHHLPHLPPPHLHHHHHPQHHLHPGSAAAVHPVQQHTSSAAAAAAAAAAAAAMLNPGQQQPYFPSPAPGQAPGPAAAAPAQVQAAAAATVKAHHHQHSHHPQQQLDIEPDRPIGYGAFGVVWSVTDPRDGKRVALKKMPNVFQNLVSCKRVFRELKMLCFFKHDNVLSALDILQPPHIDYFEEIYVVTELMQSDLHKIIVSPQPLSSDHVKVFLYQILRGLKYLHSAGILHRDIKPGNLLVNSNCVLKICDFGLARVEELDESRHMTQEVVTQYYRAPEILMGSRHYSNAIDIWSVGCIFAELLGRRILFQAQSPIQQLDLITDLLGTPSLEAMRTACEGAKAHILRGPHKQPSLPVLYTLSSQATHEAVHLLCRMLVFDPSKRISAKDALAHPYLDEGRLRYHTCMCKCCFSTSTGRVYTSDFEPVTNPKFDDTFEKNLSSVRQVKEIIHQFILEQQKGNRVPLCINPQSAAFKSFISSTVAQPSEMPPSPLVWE

[11] = target: T3, NUAK family SNF1-like kinase 1 (Homo sapiens) (UniProt O60285); experiment: NUAK1 (ARK5) Kinase screen; conditions: Compound concentration 1.0 uM
T3 sequence (whole entry): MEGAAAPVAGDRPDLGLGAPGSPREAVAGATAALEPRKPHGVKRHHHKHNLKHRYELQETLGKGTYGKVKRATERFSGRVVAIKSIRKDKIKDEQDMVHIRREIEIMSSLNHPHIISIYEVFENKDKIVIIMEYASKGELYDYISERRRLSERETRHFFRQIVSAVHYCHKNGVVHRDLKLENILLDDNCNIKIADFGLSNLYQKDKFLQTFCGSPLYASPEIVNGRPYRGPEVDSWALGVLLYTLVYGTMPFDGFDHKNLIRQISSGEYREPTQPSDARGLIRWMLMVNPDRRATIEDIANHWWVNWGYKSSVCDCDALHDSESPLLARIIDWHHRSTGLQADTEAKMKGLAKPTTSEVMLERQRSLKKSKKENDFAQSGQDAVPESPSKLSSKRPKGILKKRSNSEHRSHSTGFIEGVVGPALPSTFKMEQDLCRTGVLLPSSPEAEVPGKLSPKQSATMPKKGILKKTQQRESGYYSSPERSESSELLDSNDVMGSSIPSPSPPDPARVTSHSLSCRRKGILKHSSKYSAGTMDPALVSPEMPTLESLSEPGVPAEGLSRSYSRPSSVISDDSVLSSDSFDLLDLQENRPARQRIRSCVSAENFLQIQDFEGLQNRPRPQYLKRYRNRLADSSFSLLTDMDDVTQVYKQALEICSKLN

[12] = target: PI3-kinase p110-alpha/p85-alpha (Homo sapiens) (UniProt P27986+P42336); experiment: PIK3CA/PIK3R1 (p110 alpha/p85 alpha) Kinase screen; assay type: protein-complex assay; conditions: Compound concentration 1.0 uM
[13] = target: Protein kinase C eta type (Homo sapiens) (UniProt P24723); experiment: PRKCH (PKC eta) Kinase screen; conditions: Compound concentration 1.0 uM
Chain of Protein kinase C eta type (Homo sapiens) (P24723 whole entry): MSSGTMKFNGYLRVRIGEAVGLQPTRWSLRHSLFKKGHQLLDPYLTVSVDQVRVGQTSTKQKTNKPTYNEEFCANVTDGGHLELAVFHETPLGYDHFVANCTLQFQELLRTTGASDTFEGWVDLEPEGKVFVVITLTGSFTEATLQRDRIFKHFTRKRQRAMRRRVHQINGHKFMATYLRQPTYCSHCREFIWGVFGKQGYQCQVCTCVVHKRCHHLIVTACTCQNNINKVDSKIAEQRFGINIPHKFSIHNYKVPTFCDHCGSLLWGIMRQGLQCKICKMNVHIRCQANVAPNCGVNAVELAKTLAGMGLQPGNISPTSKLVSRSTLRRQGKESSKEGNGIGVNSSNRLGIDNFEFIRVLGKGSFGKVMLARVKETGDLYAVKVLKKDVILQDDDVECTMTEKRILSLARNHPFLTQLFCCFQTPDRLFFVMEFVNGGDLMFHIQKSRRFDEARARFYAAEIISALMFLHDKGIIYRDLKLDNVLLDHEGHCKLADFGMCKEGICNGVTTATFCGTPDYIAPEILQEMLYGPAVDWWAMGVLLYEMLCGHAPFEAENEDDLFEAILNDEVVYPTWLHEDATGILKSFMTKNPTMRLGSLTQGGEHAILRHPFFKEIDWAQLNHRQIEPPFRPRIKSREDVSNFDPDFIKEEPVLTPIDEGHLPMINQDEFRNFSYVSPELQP

[14] = target: T4, Serine/threonine-protein kinase Sgk2 (Homo sapiens) (UniProt Q9HBY8); experiment: SGK2 Kinase screen; conditions: Compound concentration 1.0 uM
T4 sequence (whole entry): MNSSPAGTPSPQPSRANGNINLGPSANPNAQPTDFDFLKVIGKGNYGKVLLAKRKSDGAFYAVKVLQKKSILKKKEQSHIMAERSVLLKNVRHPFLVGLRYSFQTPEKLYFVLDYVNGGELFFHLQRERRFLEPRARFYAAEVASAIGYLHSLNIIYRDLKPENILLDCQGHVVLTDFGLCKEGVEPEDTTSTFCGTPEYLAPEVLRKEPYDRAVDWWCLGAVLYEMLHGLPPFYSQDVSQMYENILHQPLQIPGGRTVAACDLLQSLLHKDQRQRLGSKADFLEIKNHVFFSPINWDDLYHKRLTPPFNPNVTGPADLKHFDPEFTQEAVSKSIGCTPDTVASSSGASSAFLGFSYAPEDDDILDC

[15] = target: Tyrosine-protein kinase SYK (Homo sapiens) (UniProt P43405); experiment: SYK Kinase screen; conditions: Compound concentration 1.0 uM
[16] = target: C-X-C chemokine receptor type 4 (Homo sapiens) (UniProt P61073); experiment: Chemokine CXCR4 Eurofins-Panlabs radioligand binding assay; parameters: ligand concentration 0.03 nM; conditions: Compound concentration 10.0 uM
[17] = target: D(2) dopamine receptor (Homo sapiens) (UniProt P14416); conditions: Compound concentration 10.0 uM
[18] = target: Sodium-dependent serotonin transporter (Homo sapiens) (UniProt P31645); conditions: Compound concentration 10.0 uM

Measured: inhibition

C[C@@H]1CN(c2cc(-c3n[nH]c4ccc(OC5(C)CC5)cc34)ncn2)C[C@H](C)O1 [MLi-2]
inactive: Rattus norvegicus 9% | [1] 8% | [2] 5.68% | [3] -0.531% | [4] -0.226% | [5] -0.645% | [6] 21.1% | [7] 13.6% | [8] -6.52% | [9] 6.89% | [10] 4.49% | [11] 14.5% | [12] 3.21% | [13] 6.4% | [14] 1.36% | [15] 2.84% | [16] 3% | [17] 11% | [18] 2%
